From PubChem BioAssay (NCI)
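Following 48 hours of exposure in 96-well plates, responses at five concentrations were used to interpolate endpoints linearly. TGI marks complete inhibition of growth.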

Key:
Test in all cases: growth of human tumour cells (NCI), 48 h
BT-549 breast = tested on: BT-549 breast
MCF7 breast = tested on: MCF7 breast
MDA-MB-435 = tested on: MDA-MB-435
SF-268 CNS = tested on: SF-268 CNS
HOP-62 NSCLC = tested on: HOP-62 NSCLC
NCI/ADR-RES ovarian = tested on: NCI/ADR-RES ovarian
ACHN renal = tested on: ACHN renal
SR leukemia = tested on: SR leukemia
RPMI-8226 leukemia = tested on: RPMI-8226 leukemia
CAKI-1 renal = tested on: CAKI-1 renal
SK-MEL-28 melanoma = tested on: SK-MEL-28 melanoma
HCT-15 colon = tested on: HCT-15 colon
A549 NSCLC = tested on: A549 NSCLC
RXF 393 renal = tested on: RXF 393 renal
SK-MEL-5 melanoma = tested on: SK-MEL-5 melanoma
SF-539 CNS = tested on: SF-539 CNS
U251 CNS = tested on: U251 CNS
HL-60(TB) leukemia = tested on: HL-60(TB) leukemia
MDA-MB-231 breast = tested on: MDA-MB-231 breast
UACC-62 melanoma = tested on: UACC-62 melanoma
HT29 colon = tested on: HT29 colon
NCI-H226 lung = tested on: NCI-H226 lung
A498 renal = tested on: A498 renal
K-562 leukemia = tested on: K-562 leukemia
HS 578T breast = tested on: HS 578T breast
HOP-92 NSCLC = tested on: HOP-92 NSCLC
SK-MEL-2 melanoma = tested on: SK-MEL-2 melanoma
SN12C renal = tested on: SN12C renal
KM12 colon = tested on: KM12 colon
LOX IMVI melanoma = tested on: LOX IMVI melanoma
786-0 renal = tested on: 786-0 renal
SK-OV-3 ovarian = tested on: SK-OV-3 ovarian
M14 melanoma = tested on: M14 melanoma
UACC-257 melanoma = tested on: UACC-257 melanoma
NCI-H23 lung = tested on: NCI-H23 lung
NCI-H522 lung = tested on: NCI-H522 lung
OVCAR-5 ovarian = tested on: OVCAR-5 ovarian
SF-295 CNS = tested on: SF-295 CNS
OVCAR-4 ovarian = tested on: OVCAR-4 ovarian
OVCAR-8 ovarian = tested on: OVCAR-8 ovarian
HCC-2998 colon = tested on: HCC-2998 colon
EKVX NSCLC = tested on: EKVX NSCLC
HCT-116 colon = tested on: HCT-116 colon
T-47D breast = tested on: T-47D breast
SNB-19 CNS = tested on: SNB-19 CNS
DU-145 prostate = tested on: DU-145 prostate
PC-3 prostate = tested on: PC-3 prostate
IGROV1 ovarian = tested on: IGROV1 ovarian
SNB-75 CNS = tested on: SNB-75 CNS
MALME-3M melanoma = tested on: MALME-3M melanoma
COLO 205 colon = tested on: COLO 205 colon
NCI-H460 lung = tested on: NCI-H460 lung
SW-620 colon = tested on: SW-620 colon
MDA-N = tested on: MDA-N
CCRF-CEM leukemia = tested on: CCRF-CEM leukemia
OVCAR-3 ovarian = tested on: OVCAR-3 ovarian
TK-10 renal = tested on: TK-10 renal
UO-31 renal = tested on: UO-31 renal
MOLT-4 leukemia = tested on: MOLT-4 leukemia

Measured: TGI

O=C(O)CCC1(c2ccccc2)NC(=O)NC1=O (stereo not drawn)
not listed: UO-31 renal | MOLT-4 leukemia
> 100 µM: all other assays above

CN(/N=C\c1ccc2ccccc2c1)C1=NCCCCN1
7.4 µM: HOP-92 NSCLC
39.9 µM: HL-60(TB) leukemia
29.9 µM: CAKI-1 renal
33.7 µM: UACC-257 melanoma
42.5 µM: K-562 leukemia
90.7 µM: HOP-62 NSCLC
56.6 µM: A498 renal
37.8 µM: SW-620 colon
52.1 µM: KM12 colon
35.3 µM: COLO 205 colon
33.5 µM: SF-295 CNS
45.7 µM: SN12C renal
48.2 µM: MOLT-4 leukemia
48.6 µM: SF-539 CNS
45.4 µM: SK-MEL-2 melanoma
46.8 µM: BT-549 breast
42.6 µM: RXF 393 renal
69.1 µM: CCRF-CEM leukemia
64.2 µM: UACC-62 melanoma
38.2 µM: HT29 colon
58.3 µM: A549 NSCLC
31.2 µM: MDA-N
34 µM: NCI-H522 lung
28.5 µM: HCC-2998 colon
31.1 µM: SK-MEL-28 melanoma
44.6 µM: U251 CNS
62.3 µM: HS 578T breast
36 µM: PC-3 prostate
68.7 µM: SR leukemia
56.5 µM: TK-10 renal
38.1 µM: MDA-MB-435
59.3 µM: SNB-75 CNS
27.3 µM: SK-MEL-5 melanoma
48.9 µM: MCF7 breast
64.5 µM: MDA-MB-231 breast
39.7 µM: NCI-H460 lung
55.8 µM: UO-31 renal
32.8 µM: 786-0 renal
56.9 µM: RPMI-8226 leukemia
28.7 µM: LOX IMVI melanoma
30.1 µM: MALME-3M melanoma
not listed: M14 melanoma | SNB-19 CNS
> 100 µM: all other assays above

O/N=C\c1cc(O)c(O)c(/C=N/O)c1
78.6 µM: NCI-H226 lung
71.9 µM: NCI-H522 lung
80.3 µM: ACHN renal
not listed: 786-0 renal | HCC-2998 colon
> 100 µM: all other assays above

CC(C)C(N)(C(=O)O)c1ccccc1 (stereo not drawn)
not listed: SF-539 CNS | MOLT-4 leukemia
> 100 µM: all other assays above
